Here are results for two compounds from patent US5519042A, “Method of treating hyperproliferative vascular disease” (priority 1994, dated 1996).

In the assay the test system is injured carotid arteries. In words: Effect on intimal thickening in injured carotid arteries (balloon catheter injury, morphometry). The conditions noted are these: for Intima Percent (±S.E.): mean ± standard error, untreated injured control 46.06 ± 16.36. Type of assay: in vivo, male Sprague-Dawley (SD) rats. As for the experimental part: The effect of N-(4-trifluoromethylphenyl)-5-methylisoxazole-carboxamide (compound I) on hyperproliferative vascular disease was established in an in vivo standard pharmacological test procedure that emulates the hyperproliferative effects observed in mammals that are undergoing intimal smooth muscle proliferation and are therefore developing restenosis. Cyclosporin A was also evaluated in these test procedure for the purpose of comparison.
Compound 1 was also evaluated in an in vivo standard pharmacological test procedure that emulates the vascular injury suffered and restenosis that develops following percutaneous transluminal coronary angioplasty in humans.
Intimal smooth muscle proliferation was produced by balloon catheter injury to the left carotid artery of groups of 6, male Sprague-Dawley (SD) rats. […] A balloon catheter (2 French Fogarty, Edwards Laboratories, Santa Anna, Calif.) was passed through the external carotid artery into the aorta. The balloon was then inflated with an amount of water sufficient to distend the common carotid artery and was then pulled back to the external carotid artery. The inflation and pull back were repeated three times. This procedure leads to complete denudation of the endothelium throughout the common carotid artery, and also some injury typically occurs to the medial smooth muscle cells.
During a 17-days period (3 days before operation to 13 days after operation), these rats were divided into 2 groups of 6 animals and treated daily with compound 1 (20 mg/kg/day, intraperitoneal (i.p.)) or cyclosporin A (3 mg/kg/day; i.p.).
An injured group not treated with any drug was used as an injured control to establish the amount of intimal thickening in the absence of treatment. The right carotid was used as an uninjured control in all groups.
After the 14 day post-operative period, the rats were sacrificed, the carotids removed. The mean areas of the intima, media and total blood vessel wall were measured by morphometry. The injured artery was also examined using histopathologic assays. Results are presented as an intima percent, expressed as follows: [formula]

On to `Cc1oncc1C(=O)Nc1ccc(C(F)(F)F)cc1` [Compound 1, N-(4-trifluoromethylphenyl)-5-methylisoxazole-4-carboxamide], for which the “decrease in the mean percentage intimal thickening compared with the untreated injured control group” value (20 mg/kg/day i.p.) amounted to 83%. Also, the “Intima Percent (±S.E.)” value (20 mg/kg/day i.p., 3 days before to 13 days after operation) is reported as 7.88 ± 7.88%.
Regarding Cyclosporin A, the “reduction in intimal thickening (in words)” value (3 mg/kg/day i.p.) was “failed to produce any meaningful reduction in intimal thickening”. The “Intima Percent (±S.E.)” value (3 mg/kg/day i.p., 14 days) is given as 39.39 ± 26.06%.
